These are literature values, as cited in patent US20250339366A1, “AN ORODISPERSIBLE TABLET OF RIVAROXABAN” (INTAS PHARMACEUTICALS LTD., priority 2022, published 2025).

Take `O=C(NC[C@H]1CN(c2ccc(N3CCOCC3=O)cc2)C(=O)O1)c1ccc(Cl)s1` [Rivaroxaban, 5-Chloro-N-({(5S)-2-oxo-3-[4-(3-oxo-4-morpholinyl)phenyl]-1,3-oxzolidin-5-yl}methyl)-2-thiophene-carboxamide]: the Solubility in water result is “practically insoluble in water”.
